pIC50: −log10 of the molar value.
Key:
[1] = test system: P. falciparum male gametocytes; experiment: P. falciparum Dual Gamete Formation Assay (PfDGFA), male readout (exflagellation); assay type: cell-based, Plasmodium falciparum NF54; conditions: for % inhibition male (individual replicates) R1: replicate R1; for % inhibition male (individual replicates) R3: replicate R3; for % inhibition male (individual replicates) R4: replicate R4; for Average inhibition male (%): average of replicates; for Activity: hit = >50% inhibition in male or female readout in at least 3 replicates, 0 = no class assigned
Description: (§1) P. falciparum NF54 (originally isolated from an imported malaria case in the Netherlands in the 1980s; BEI Resources, cat. No. MRA-1000) strain asexual parasites were maintained between 0.3–5% parasitaemia by regular passage in complete culture medium (RPMI supplemented with 25 mM HEPES, 50 μg ml^−1 hypoxanthine, 4.8 g l^−1 NaHCO3, 2mM L-glutamine, 5% pooled type AB serum, 0.5% Albumax II (Gibco)) at 4% haematocrit in washed whole blood (National Blood and Transfusion Service or Centro de Transfusiones de la Comunidad de Madrid CTCM) under a 1% O2/3% CO2/96% N2 environment. Gametocytes were induced by seeding culture flasks at 2% parasitaemia/4% haematocrit and subjecting them to daily medium changes for 14 days whilst maintaining a temperature of 37°C at all times. On Day 14, the maturity of gametocytes was assessed by quantifying male gametogenesis (exflagellation). A 20 μl sample of gametocyte culture was mixed with equal volume of ookinete medium (complete culture medium supplemented with 0.1 μM xanthurenic acid) at room temperature and transferred to a haemocytometer. After 20 min at room temperature, exflagellation was accurately quantified as described in Delves et al. 2016 [17].
(§2) The Pf DGFA was performed as described in Delves et al. 2016 [17]. […] Plates were then incubated for 24 h at 37°C in a humidified box under a 1% O2/3% CO2/96% N2 gas mix. Gametogenesis was triggered by addition of 10 μl per well of ookinete medium + 0.27 μg ml^-1 Cy3-labelled anti-Pfs25 antibody. Plates were incubated on a metal block at 4°C for 4 min to ensure even cooling, then 28°C for a further 4 min. Exflagellation was recorded by capturing 10 frames over 1 s under brightfield illumination using a x4 objective with a 1.5x zoom (effectively x6) attached to an automated Nikon Ti fluorescence microscope. After recording exflagellation, plates were incubated for a further 24 h in the dark at 28°C to ensure maximal expression of Pfs25 by female gametes. The plates were then returned to the microscope and female gametes imaged at x6 using fluorescence microscopy.
(§3) Exflagellation centres and female gametes were quantified using custom image analysis pipelines developed within ICY Bioimage Analysis (https://icy.bioimageanalysis.org/).

[2] = test system: P. falciparum female gametocytes; experiment: P. falciparum Dual Gamete Formation Assay (PfDGFA), female readout (Pfs25-positive female gametes); assay type: cell-based, Plasmodium falciparum NF54; conditions: for % inhibition female (individual replicates) R1: replicate R1; for % inhibition female (individual replicates) R3: replicate R3; for % inhibition female (individual replicates) R4: replicate R4; for Average inhibition female (%): average of replicates
Description: as §1, §2, §3

[3] = PfDGFA at 2µM, 24h preincubation with gametocytes prior to induction of gametogenesis
[4] = PfDGFA at 2µM, 24h preincubation
[5] = 2µM, 24h preincubation with gametocytes prior to induction of gametogenesis
[6] = 2µM, 24h preincubation, hits selected on >50% inhibition in the male readout across replicates
[7] = 2µM, 24h preincubation, hits selected on >50% inhibition in the female readout across replicates
[8] = 2µM, 24h preincubation, number of replicates with >50% inhibition in the male readout
[9] = 2µM, 24h preincubation, number of replicates with >50% inhibition in the female readout
[10] = PfDGFA at 2µM, 24h preincubation with gametocytes
[11] = number of replicates with >50% inhibition in the male readout, 2µM
[12] = number of replicates with >50% inhibition in the female readout, 2µM
[13] = 2µM, 24h preincubation with gametocytes

## CN(C)CCCNCc1ccc(-c2ccc(CNCCOc3ccccc3)cc2)cc1.O=C(O)C(F)(F)F [TCMDC-141457]
[1]; [3]
  % inhibition male (individual replicates) R1: 5.2%
  % inhibition male (individual replicates) R3: 1.0%
  % inhibition male (individual replicates) R4: 30.2%
[1]; [4]
  Average inhibition male (%): 9.2%
[2]; [3]
  % inhibition female (individual replicates) R1: 3.5%
  % inhibition female (individual replicates) R3: -18.9%
  % inhibition female (individual replicates) R4: -9.2%
[2]; [4]
  Average inhibition female (%): -4.9%

## CCOC(=O)c1cc(C(=O)OC)c2ccccn12 [TCMDC-124299]
[1]; [3]
  % inhibition male (individual replicates) R1: 15.7%
  % inhibition male (individual replicates) R3: -23.4%
  % inhibition male (individual replicates) R4: -23.1%
[1]; [4]
  Average inhibition male (%): -9.0%
[2]; [3]
  % inhibition female (individual replicates) R1: 6.3%
  % inhibition female (individual replicates) R3: -21.8%
  % inhibition female (individual replicates) R4: 0.07%
[2]; [4]
  Average inhibition female (%): -2.7%

## COc1cc(CNCCCCCCNCc2cc(OC)cc3ccccc23)c2ccccc2c1.CS(=O)(=O)O [TCMDC-137823]
[1]; [5]
  Average inhibition male (%): 27.1%
  % inhibition male (individual replicates) R1: 24.9%
  % inhibition male (individual replicates) R3: 12.3%
  % inhibition male (individual replicates) R4: 38.9%
[1]; [6]
  HitlevelM: 0
[1]; [4]
  Activity: 0
[2]; [5]
  Average inhibition female (%): 15.2%
  % inhibition female (individual replicates) R1: 16.9%
  % inhibition female (individual replicates) R3: 3.5%
  % inhibition female (individual replicates) R4: 20.5%
[2]; [7]
  HitlevelF: 0

## CCC(CC)n1c(C)cc2c3c(N)nc(N)nc3ccc21 [TCMDC-137283]
[1]; [5]
  Average inhibition male (%): 25.7%
  % inhibition male (individual replicates) R1: 19.3%
  % inhibition male (individual replicates) R3: 21.9%
  % inhibition male (individual replicates) R4: 21.2%
[1]; [6]
  HitlevelM: 0
[1]; [4]
  Activity: 0
[2]; [5]
  Average inhibition female (%): 4.2%
  % inhibition female (individual replicates) R1: -6.1%
  % inhibition female (individual replicates) R3: 8.3%
  % inhibition female (individual replicates) R4: 19.7%
[2]; [7]
  HitlevelF: 0

## Cl.c1ccc2c(c1)cc(CNCCCN1CCN(CCCNCc3cc4ccccc4c4ccccc34)CC1)c1ccccc12 [TCMDC-137914]
[1]; [5]
  Average inhibition male (%): 5.2%
  % inhibition male (individual replicates) R1: 10.5%
  % inhibition male (individual replicates) R3: -10.9%
  % inhibition male (individual replicates) R4: 23.6%
[1]; [8]
  HitlevelM: 0
[2]; [5]
  Average inhibition female (%): 20.8%
  % inhibition female (individual replicates) R1: 24.6%
  % inhibition female (individual replicates) R3: 15.0%
  % inhibition female (individual replicates) R4: 14.7%
[2]; [9]
  HitlevelF: 0

## COc1ccc(CNCCCCCCNCc2ccc(OC)c3ccccc23)c2ccccc12.Cl [TCMDC-137631]
[1]; [10]
  Average inhibition male (%): 83.3%
  % inhibition male (individual replicates) R1: 71.0%
  % inhibition male (individual replicates) R3: 73.6%
  % inhibition male (individual replicates) R4: 100.9%
[1]; [11]
  HitlevelM: 4
[2]; [10]
  Average inhibition female (%): 47.3%
  % inhibition female (individual replicates) R1: 36.3%
  % inhibition female (individual replicates) R3: 33.7%
  % inhibition female (individual replicates) R4: 34.7%
[2]; [12]
  HitlevelF: 1

## CC(=NNC(=S)Nc1ccccc1Cl)c1ccccn1 [TCMDC-124278]
[1]; [13]
  Average inhibition male (%): 101.3%
  % inhibition male (individual replicates) R1: 101.8%
  % inhibition male (individual replicates) R3: 99.8%
  % inhibition male (individual replicates) R4: 103.6%
[1]; PfDGFA, 24 h incubation with gametocytes before induction, exflagellation readout, read-out: Male IC50
  pIC50: 6.96
[2]; [13]
  Average inhibition female (%): 61.5%
  % inhibition female (individual replicates) R1: 40.0%
  % inhibition female (individual replicates) R3: 55.6%
  % inhibition female (individual replicates) R4: 74.7%
[2]; PfDGFA, 24 h incubation with gametocytes before induction, female gamete readout, read-out: Female IC50
  pIC50: 6.52

## CCCC(C)NC(=O)[C@H]1CNCCN1C(=O)CCCc1ccccc1.O=C(O)C(F)(F)F (stereo partly shown) [TCMDC-141270]
[1]; [3]
  % inhibition male (individual replicates) R1: -7.3%
  % inhibition male (individual replicates) R3: -0.8%
  % inhibition male (individual replicates) R4: 2.9%
[1]; [4]
  Average inhibition male (%): -3.3%
[2]; [3]
  % inhibition female (individual replicates) R1: 8.3%
  % inhibition female (individual replicates) R3: -18.4%
  % inhibition female (individual replicates) R4: -2.2%
[2]; [4]
  Average inhibition female (%): 0.7%

## COc1ccc(CNC2CCN(C)CC2)cc1-c1cccc(S(=O)(=O)NCc2ccccc2)c1.O=C(O)C(F)(F)F [TCMDC-132267]
[1]; [10]
  Average inhibition male (%): 67.3%
  % inhibition male (individual replicates) R1: 62.4%
  % inhibition male (individual replicates) R3: 55.8%
  % inhibition male (individual replicates) R4: 79.6%
[1]; [11]
  HitlevelM: 4
[2]; [10]
  Average inhibition female (%): 16.9%
  % inhibition female (individual replicates) R1: 27.9%
  % inhibition female (individual replicates) R3: 4.5%
  % inhibition female (individual replicates) R4: 10.9%
[2]; [12]
  HitlevelF: 0

## Cc1ccc(N2C(N)=NC(N)=NC2(C)C)cc1Cl.Cl [TCMDC-137708]
[1]; [5]
  Average inhibition male (%): -13.6%
  % inhibition male (individual replicates) R1: 11.4%
  % inhibition male (individual replicates) R3: -5.0%
  % inhibition male (individual replicates) R4: -55.8%
[1]; [6]
  HitlevelM: 0
[1]; [4]
  Activity: 0
[2]; [5]
  Average inhibition female (%): 15.0%
  % inhibition female (individual replicates) R1: 12.7%
  % inhibition female (individual replicates) R3: 7.1%
  % inhibition female (individual replicates) R4: 19.9%
[2]; [7]
  HitlevelF: 0

## O=C(C1CC1c1ccccc1)N(Cc1ccc(-c2ccc(CNCCc3ccccc3)cc2)cc1)C1CCNCC1.O=C(O)C(F)(F)F (stereo not shown) [TCMDC-141443]
[1]; [5]
  Average inhibition male (%): 40.0%
  % inhibition male (individual replicates) R1: 61.6%
  % inhibition male (individual replicates) R3: 28.4%
  % inhibition male (individual replicates) R4: 57.9%
[1]; [8]
  HitlevelM: 2
[2]; [5]
  Average inhibition female (%): 24.9%
  % inhibition female (individual replicates) R1: 19.9%
  % inhibition female (individual replicates) R3: 29.6%
  % inhibition female (individual replicates) R4: 18.3%
[2]; [9]
  HitlevelF: 0

## Cc1c(Cc2ccc(C(C)C)cc2)cnc2nc(N)nc(N)c12 [TCMDC-138044]
[1]; [3]
  % inhibition male (individual replicates) R1: 10.0%
  % inhibition male (individual replicates) R3: -13.9%
  % inhibition male (individual replicates) R4: -19.8%
[1]; [4]
  Average inhibition male (%): -5.8%
[2]; [3]
  % inhibition female (individual replicates) R1: 2.8%
  % inhibition female (individual replicates) R3: -15.2%
  % inhibition female (individual replicates) R4: -3.9%
[2]; [4]
  Average inhibition female (%): -2.8%

## CCc1c(CCNCCCCCCNCCc2ccc3c(c2C)OCO3)ccc2c1OCO2.Cl [TCMDC-132093]
[1]; [5]
  Average inhibition male (%): 59.8%
  % inhibition male (individual replicates) R1: 52.8%
  % inhibition male (individual replicates) R3: 37.9%
  % inhibition male (individual replicates) R4: 88.2%
[1]; [8]
  HitlevelM: 3
[2]; [5]
  Average inhibition female (%): 43.6%
  % inhibition female (individual replicates) R1: 28.1%
  % inhibition female (individual replicates) R3: 50.1%
  % inhibition female (individual replicates) R4: 47.8%
[2]; [9]
  HitlevelF: 1

## COc1ccc2ncc(F)c(CCN3C[C@H](CNCc4nc5c(cc4Cl)OCC(=O)N5)[C@H](O)C3)c2n1.Cl [TCMDC-136031]
[1]; [5]
  Average inhibition male (%): 6.8%
  % inhibition male (individual replicates) R1: 19.6%
  % inhibition male (individual replicates) R3: -8.5%
  % inhibition male (individual replicates) R4: 9.5%
[1]; [6]
  HitlevelM: 0
[1]; [4]
  Activity: 0
[2]; [5]
  Average inhibition female (%): 9.3%
  % inhibition female (individual replicates) R1: 13.9%
  % inhibition female (individual replicates) R3: -6.7%
  % inhibition female (individual replicates) R4: 27.7%
[2]; [7]
  HitlevelF: 0
